Assays:
[1] = system: three-dimensional skin model; experiment: Skin irritation test: MTT cytotoxicity on three-dimensional cultured skin model; assay type: cell-based; settings: test substance in PBS pH 7, 1 hour exposure, 16 hours incubation, read from graph
Procedure: Using a three-dimensional skin model (trade name: Three-dimensional cultured skin model, manufactured by Gunze), skin irritation tests were performed. […] The test substances were adjusted with PBS (Phosphate Buffer Saline, pH 7) so that they were in various concentrations. To the thus-adjusted test substances was exposed the skin model for 1 hour. Thereafter, the test substances were washed and incubated for 16 hours in a medium attached to the above-described three-dimensional skin model. After the incubation, a solution of MTT (3-(4,5-dimethylthiazol-2-yl)-2,5-diphenyltetrazolium bromide) was added and pigments were extracted with isopropanol rendered acidic with hydrochloric acid, followed by measurement of absorbance at a wavelength of 570 nm. […] This value was called B. The MTT solution was added to PBS and extraction was performed similarly. Absorbance of the extract measured at a wavelength of 570 nm was named C. From these values was calculated cytotoxicity. Calculation was made according to the following equation. Cytotoxicity (%) = (1-(A-c)/(B-C)) x 100 [formula]
Plotting the concentration of a test substance on the axis of abscissa and cytotoxicity on the axis of ordinate, a graph was obtained, from which the concentration of a test compound at 50% cytotoxicity was read.

[2] = Turbidity test of surfactin solutions with alkaline earth metal, judged visually after storage; assay type: physicochemical; parameters: key: -: Not turbid; ±: Slightly turbid; +: Turbid; settings: 40°C for 7 days
Procedure: (§1) Samples were prepared by dissolving surfactin sodium salt in a concentration of 0 or 0.2% and calcium chloride dihydrate in a calcium concentration of 0, 10, or 20 ppm in each of solvents described below, and each solution was charged in a screw vial and sealed, which was then left to stand at 40°C for 7 days. After 7 days, the turbidity of each sample was judged visually.
(§2) Samples were prepared by dissolving 0.2% surfactin sodium salt and magnesium chloride dihydrate in a magnesium concentration of 0, 10, or 20 ppm in each of solvents described below, and each solution was charged in a screw vial and sealed, which was then left to stand at 40°C for 7 days. After 7 days, the turbidity of each sample was judged visually.
(§3) Samples were prepared by dissolving 0.2% surfactin sodium salt and calcium chloride dihydrate in a calcium concentration of 0.1, 1, or 10 ppm in the solvent described below and further disodium edetate was added in an amount of 0, 0.0001, 0.001, 0.01, 0.1, 0.2, 1, or 3%, respectively. Then, each solution was charged in a screw vial and sealed, which was then left to stand at 40°C for 7 days. After 7 days, the turbidity of each sample was judged visually. […]
(§4) Samples were prepared by dissolving 0.2% surfactin sodium salt and calcium chloride dihydrate in a calcium concentration of 0.1, 1, or 10 ppm in the solvent described below and further sodium citrate was added in an amount of 0, 0.0001, 0.001, 0.01, 0.1, 0.2, 1, or 3%, respectively. Then, each solution was charged in a screw vial and sealed, which was then left to stand at 40°C for 7 days. After 7 days, the turbidity of each sample was judged visually. […]

[3] = Surface tension test (plate method); assay type: physicochemical; settings: 0.1 wt% in water, 25°C
Procedure: The dried medium preparation and purified surfactin sodium salt were each dissolved in water in an amount of 0.1 wt% and their ability of decreasing surface tension was tested. […]

[4] = Turbidity test of surfactin solutions with alkaline earth metal, judged visually after storage; assay type: physicochemical; parameters: key: -: Not turbid; +: Turbid; settings: 40°C for 7 days
Procedure: as §1, §2, §3, §4

Substance: surfactin sodium salt
- Concentration of surfactant at 50% cytotoxicity [1]: 24.4%
- turbidity ([2]; 0.2% surfactin sodium salt in Solvent 2 (7% Ethanol, 93% deionized water), magnesium 10 ppm): ±
- turbidity ([2]; 0.2% surfactin sodium salt in Solvent 2 (7% Ethanol, 93% deionized water), magnesium 20 ppm): ±
- turbidity ([2]; 0.2% surfactin sodium salt in Solvent 3 (7% Ethanol, 5% glycerin, 5% 1,3-butylene glycol, 83% deionized water), magnesium 10 ppm): ±
- turbidity ([2]; 0.2% surfactin sodium salt in Solvent 3 (7% Ethanol, 5% glycerin, 5% 1,3-butylene glycol, 83% deionized water), magnesium 20 ppm): ±
- turbidity ([2]; 0.2% surfactin sodium salt, sodium citrate 0.0001%, calcium 1 ppm, solvent 7% Ethanol, 5% glycerin, 5% 1,3-butylene glycol, 83% deionized water): ±
- turbidity ([2]; 0.2% surfactin sodium salt, sodium edetate 0.0001%, calcium 1 ppm, solvent 7% Ethanol, 5% glycerin, 5% 1,3-butylene glycol, 83% deionized water): ±
- Surface Tension [3]: 27.6 mN/m
- turbidity ([4]; 0.2% surfactin sodium salt in Solvent 1 (deionized water), magnesium 0 ppm): -
- turbidity ([4]; 0.2% surfactin sodium salt in Solvent 1 (deionized water), magnesium 10 ppm): +
- turbidity ([4]; 0.2% surfactin sodium salt in Solvent 1 (deionized water), magnesium 20 ppm): +
- turbidity ([4]; 0.2% surfactin sodium salt in Solvent 2 (7% Ethanol, 93% deionized water), magnesium 0 ppm): -
- turbidity ([4]; 0.2% surfactin sodium salt in Solvent 3 (7% Ethanol, 5% glycerin, 5% 1,3-butylene glycol, 83% deionized water), magnesium 0 ppm): -
- turbidity ([4]; 0.2% surfactin sodium salt, sodium citrate 0%, calcium 0.1 ppm, solvent 7% Ethanol, 5% glycerin, 5% 1,3-butylene glycol, 83% deionized water): -
- turbidity ([4]; 0.2% surfactin sodium salt, sodium citrate 0%, calcium 1 ppm, solvent 7% Ethanol, 5% glycerin, 5% 1,3-butylene glycol, 83% deionized water): +
- turbidity ([4]; 0.2% surfactin sodium salt, sodium citrate 0%, calcium 10 ppm, solvent 7% Ethanol, 5% glycerin, 5% 1,3-butylene glycol, 83% deionized water): +
- turbidity ([4]; 0.2% surfactin sodium salt, sodium citrate 0.0001%, calcium 0.1 ppm, solvent 7% Ethanol, 5% glycerin, 5% 1,3-butylene glycol, 83% deionized water): -
- turbidity ([4]; 0.2% surfactin sodium salt, sodium citrate 0.0001%, calcium 10 ppm, solvent 7% Ethanol, 5% glycerin, 5% 1,3-butylene glycol, 83% deionized water): +
- turbidity ([4]; 0.2% surfactin sodium salt, sodium citrate 0.001%, calcium 0.1 ppm, solvent 7% Ethanol, 5% glycerin, 5% 1,3-butylene glycol, 83% deionized water): -
- turbidity ([4]; 0.2% surfactin sodium salt, sodium citrate 0.001%, calcium 1 ppm, solvent 7% Ethanol, 5% glycerin, 5% 1,3-butylene glycol, 83% deionized water): -
- turbidity ([4]; 0.2% surfactin sodium salt, sodium citrate 0.001%, calcium 10 ppm, solvent 7% Ethanol, 5% glycerin, 5% 1,3-butylene glycol, 83% deionized water): +
- turbidity ([4]; 0.2% surfactin sodium salt, sodium citrate 0.01%, calcium 0.1 ppm, solvent 7% Ethanol, 5% glycerin, 5% 1,3-butylene glycol, 83% deionized water): -
- turbidity ([4]; 0.2% surfactin sodium salt, sodium citrate 0.01%, calcium 1 ppm, solvent 7% Ethanol, 5% glycerin, 5% 1,3-butylene glycol, 83% deionized water): -
- turbidity ([4]; 0.2% surfactin sodium salt, sodium citrate 0.01%, calcium 10 ppm, solvent 7% Ethanol, 5% glycerin, 5% 1,3-butylene glycol, 83% deionized water): -
- turbidity ([4]; 0.2% surfactin sodium salt, sodium citrate 0.1%, calcium 0.1 ppm, solvent 7% Ethanol, 5% glycerin, 5% 1,3-butylene glycol, 83% deionized water): -
- turbidity ([4]; 0.2% surfactin sodium salt, sodium citrate 0.1%, calcium 1 ppm, solvent 7% Ethanol, 5% glycerin, 5% 1,3-butylene glycol, 83% deionized water): -
- turbidity ([4]; 0.2% surfactin sodium salt, sodium citrate 0.1%, calcium 10 ppm, solvent 7% Ethanol, 5% glycerin, 5% 1,3-butylene glycol, 83% deionized water): -
- turbidity ([4]; 0.2% surfactin sodium salt, sodium citrate 0.2%, calcium 0.1 ppm, solvent 7% Ethanol, 5% glycerin, 5% 1,3-butylene glycol, 83% deionized water): -
- turbidity ([4]; 0.2% surfactin sodium salt, sodium citrate 0.2%, calcium 1 ppm, solvent 7% Ethanol, 5% glycerin, 5% 1,3-butylene glycol, 83% deionized water): -
- turbidity ([4]; 0.2% surfactin sodium salt, sodium citrate 0.2%, calcium 10 ppm, solvent 7% Ethanol, 5% glycerin, 5% 1,3-butylene glycol, 83% deionized water): -
- turbidity ([4]; 0.2% surfactin sodium salt, sodium citrate 1%, calcium 0.1 ppm, solvent 7% Ethanol, 5% glycerin, 5% 1,3-butylene glycol, 83% deionized water): -
- turbidity ([4]; 0.2% surfactin sodium salt, sodium citrate 1%, calcium 1 ppm, solvent 7% Ethanol, 5% glycerin, 5% 1,3-butylene glycol, 83% deionized water): -
- turbidity ([4]; 0.2% surfactin sodium salt, sodium citrate 1%, calcium 10 ppm, solvent 7% Ethanol, 5% glycerin, 5% 1,3-butylene glycol, 83% deionized water): -
- turbidity ([4]; 0.2% surfactin sodium salt, sodium citrate 3%, calcium 0.1 ppm, solvent 7% Ethanol, 5% glycerin, 5% 1,3-butylene glycol, 83% deionized water): -
- turbidity ([4]; 0.2% surfactin sodium salt, sodium citrate 3%, calcium 1 ppm, solvent 7% Ethanol, 5% glycerin, 5% 1,3-butylene glycol, 83% deionized water): -
- turbidity ([4]; 0.2% surfactin sodium salt, sodium citrate 3%, calcium 10 ppm, solvent 7% Ethanol, 5% glycerin, 5% 1,3-butylene glycol, 83% deionized water): -
- turbidity ([4]; 0.2% surfactin sodium salt, sodium edetate 0%, calcium 0.1 ppm, solvent 7% Ethanol, 5% glycerin, 5% 1,3-butylene glycol, 83% deionized water): -
- turbidity ([4]; 0.2% surfactin sodium salt, sodium edetate 0%, calcium 1 ppm, solvent 7% Ethanol, 5% glycerin, 5% 1,3-butylene glycol, 83% deionized water): +
- turbidity ([4]; 0.2% surfactin sodium salt, sodium edetate 0%, calcium 10 ppm, solvent 7% Ethanol, 5% glycerin, 5% 1,3-butylene glycol, 83% deionized water): +
- turbidity ([4]; 0.2% surfactin sodium salt, sodium edetate 0.0001%, calcium 0.1 ppm, solvent 7% Ethanol, 5% glycerin, 5% 1,3-butylene glycol, 83% deionized water): -
- turbidity ([4]; 0.2% surfactin sodium salt, sodium edetate 0.0001%, calcium 10 ppm, solvent 7% Ethanol, 5% glycerin, 5% 1,3-butylene glycol, 83% deionized water): +
- turbidity ([4]; 0.2% surfactin sodium salt, sodium edetate 0.001%, calcium 0.1 ppm, solvent 7% Ethanol, 5% glycerin, 5% 1,3-butylene glycol, 83% deionized water): -
- turbidity ([4]; 0.2% surfactin sodium salt, sodium edetate 0.001%, calcium 1 ppm, solvent 7% Ethanol, 5% glycerin, 5% 1,3-butylene glycol, 83% deionized water): -
- turbidity ([4]; 0.2% surfactin sodium salt, sodium edetate 0.001%, calcium 10 ppm, solvent 7% Ethanol, 5% glycerin, 5% 1,3-butylene glycol, 83% deionized water): +
- turbidity ([4]; 0.2% surfactin sodium salt, sodium edetate 0.01%, calcium 0.1 ppm, solvent 7% Ethanol, 5% glycerin, 5% 1,3-butylene glycol, 83% deionized water): -
- turbidity ([4]; 0.2% surfactin sodium salt, sodium edetate 0.01%, calcium 1 ppm, solvent 7% Ethanol, 5% glycerin, 5% 1,3-butylene glycol, 83% deionized water): -
- turbidity ([4]; 0.2% surfactin sodium salt, sodium edetate 0.01%, calcium 10 ppm, solvent 7% Ethanol, 5% glycerin, 5% 1,3-butylene glycol, 83% deionized water): -
- turbidity ([4]; 0.2% surfactin sodium salt, sodium edetate 0.1%, calcium 0.1 ppm, solvent 7% Ethanol, 5% glycerin, 5% 1,3-butylene glycol, 83% deionized water): -
- turbidity ([4]; 0.2% surfactin sodium salt, sodium edetate 0.1%, calcium 1 ppm, solvent 7% Ethanol, 5% glycerin, 5% 1,3-butylene glycol, 83% deionized water): -
- turbidity ([4]; 0.2% surfactin sodium salt, sodium edetate 0.1%, calcium 10 ppm, solvent 7% Ethanol, 5% glycerin, 5% 1,3-butylene glycol, 83% deionized water): -
- turbidity ([4]; 0.2% surfactin sodium salt, sodium edetate 0.2%, calcium 0.1 ppm, solvent 7% Ethanol, 5% glycerin, 5% 1,3-butylene glycol, 83% deionized water): -
- turbidity ([4]; 0.2% surfactin sodium salt, sodium edetate 0.2%, calcium 1 ppm, solvent 7% Ethanol, 5% glycerin, 5% 1,3-butylene glycol, 83% deionized water): -
- turbidity ([4]; 0.2% surfactin sodium salt, sodium edetate 0.2%, calcium 10 ppm, solvent 7% Ethanol, 5% glycerin, 5% 1,3-butylene glycol, 83% deionized water): -
- turbidity ([4]; 0.2% surfactin sodium salt, sodium edetate 1%, calcium 0.1 ppm, solvent 7% Ethanol, 5% glycerin, 5% 1,3-butylene glycol, 83% deionized water): -
- turbidity ([4]; 0.2% surfactin sodium salt, sodium edetate 1%, calcium 1 ppm, solvent 7% Ethanol, 5% glycerin, 5% 1,3-butylene glycol, 83% deionized water): -
- turbidity ([4]; 0.2% surfactin sodium salt, sodium edetate 1%, calcium 10 ppm, solvent 7% Ethanol, 5% glycerin, 5% 1,3-butylene glycol, 83% deionized water): -
- turbidity ([4]; 0.2% surfactin sodium salt, sodium edetate 3%, calcium 0.1 ppm, solvent 7% Ethanol, 5% glycerin, 5% 1,3-butylene glycol, 83% deionized water): -
- turbidity ([4]; 0.2% surfactin sodium salt, sodium edetate 3%, calcium 1 ppm, solvent 7% Ethanol, 5% glycerin, 5% 1,3-butylene glycol, 83% deionized water): -
- turbidity ([4]; 0.2% surfactin sodium salt, sodium edetate 3%, calcium 10 ppm, solvent 7% Ethanol, 5% glycerin, 5% 1,3-butylene glycol, 83% deionized water): -
- turbidity ([4]; Surfactin 0.2% in Solvent 1 (deionized water), calcium 0 ppm): -
- turbidity ([4]; Surfactin 0.2% in Solvent 1 (deionized water), calcium 10 ppm): +
- turbidity ([4]; Surfactin 0.2% in Solvent 1 (deionized water), calcium 20 ppm): +
- turbidity ([4]; Surfactin 0.2% in Solvent 2 (7% Ethanol, 93% deionized water), calcium 0 ppm): -
- turbidity ([4]; Surfactin 0.2% in Solvent 2 (7% Ethanol, 93% deionized water), calcium 10 ppm): +
- turbidity ([4]; Surfactin 0.2% in Solvent 2 (7% Ethanol, 93% deionized water), calcium 20 ppm): +
- turbidity ([4]; Surfactin 0.2% in Solvent 3 (7% Ethanol, 5% glycerin, 5% 1,3-butylene glycol, 83% deionized water), calcium 0 ppm): -
- turbidity ([4]; Surfactin 0.2% in Solvent 3 (7% Ethanol, 5% glycerin, 5% 1,3-butylene glycol, 83% deionized water), calcium 10 ppm): +
- turbidity ([4]; Surfactin 0.2% in Solvent 3 (7% Ethanol, 5% glycerin, 5% 1,3-butylene glycol, 83% deionized water), calcium 20 ppm): +
